# Tests used:
# [1] = test system: Tyrosine-protein kinase ABL1 (Homo sapiens), P00519 [F317I]; experiment: Binding affinity to human non-phosphorylated ABL1 F317I mutant (S229 to K512 residues) expressed in mammalian expression system assessed as residual binding level at 1 uM by Kinomescan method relative to control
# [2] = test system: Tyrosine-protein kinase ABL1 (Homo sapiens), P00519 [F317I]; experiment: Binding affinity to human phosphorylated ABL1 F317I mutant (S229 to K512 residues) expressed in mammalian expression system assessed as residual binding level at 1 uM by Kinomescan method relative to control
# [3] = biological target: Cyclin-dependent kinase 11A (Homo sapiens) (UniProt Q9UQ88); experiment: Binding affinity to wild-type human partial length CDC2L2 (D391 to K730 residues) expressed in bacterial expression system assessed as residual binding level at 1 uM by Kinomescan method relative to control
# [4] = biological target: Tyrosine-protein kinase CSK (Homo sapiens) (UniProt P41240); experiment: Binding affinity to wild-type human full length CSK (M1 to L450 residues) expressed in bacterial expression system assessed as residual binding level at 1 uM by Kinomescan method relative to control
# [5] = biological target: Casein kinase I isoform gamma-3 (Homo sapiens) (UniProt Q9Y6M4); experiment: Binding affinity to wild-type human full length CSNK1G3 (M1 to K447 residues) expressed in bacterial expression system assessed as residual binding level at 1 uM by Kinomescan method relative to control
# [6] = biological target: Casein kinase II subunit alpha (Homo sapiens) (UniProt P68400); experiment: Binding affinity to wild-type human full length CSNK2A1 (M1 to Q391 residues) expressed in mammalian expression system assessed as residual binding level at 1 uM by Kinomescan method relative to control
# [7] = biological target: Megakaryocyte-associated tyrosine-protein kinase (Homo sapiens) (UniProt P42679); experiment: Binding affinity to wild-type human full length CTK (M43 to P508 residues) expressed in mammalian expression system assessed as residual binding level at 1 uM by Kinomescan method relative to control
# [8] = biological target: Dual specificity tyrosine-phosphorylation-regulated kinase 1B (Homo sapiens) (UniProt Q9Y463); experiment: Binding affinity to wild-type human full length DYRK1B (M1 to S629 residues) expressed in bacterial expression system assessed as residual binding level at 1 uM by Kinomescan method relative to control
# [9] = biological target: Epidermal growth factor receptor (Homo sapiens) (UniProt P00533); experiment: Binding affinity to wild-type human partial length EGFR (R669 to V1011 residues) expressed in bacterial expression system assessed as residual binding level at 1 uM by Kinomescan method relative to control
# [10] = test system: Epidermal growth factor receptor (Homo sapiens), P00533 [UNDEFINED MUTATION]; experiment: Binding affinity to human partial length EGFR L747-S752del/P753S mutant expressed in bacterial expression system assessed as residual binding level at 1 uM by Kinomescan method relative to control
# [11] = test system: Receptor-type tyrosine-protein kinase FLT3 (Homo sapiens), P36888 [K663Q]; experiment: Binding affinity to human partial length FLT3 K663Q mutant (V592 to Y969 residues) expressed in bacterial expression system assessed as residual binding level at 1 uM by Kinomescan method relative to control
# [12] = biological target: Rhodopsin kinase GRK1 (Homo sapiens) (UniProt Q15835); experiment: Binding affinity to wild-type human full length GRK1 (M1 to S563 residues) expressed in mammalian expression system assessed as residual binding level at 1 uM by Kinomescan method relative to control
# [13] = biological target: Macrophage-stimulating protein receptor (Homo sapiens) (UniProt Q04912); experiment: Binding affinity to wild-type human partial length MST1R (I1057 to L1363 residues) expressed in bacterial expression system assessed as residual binding level at 1 uM by Kinomescan method relative to control
# [14] = biological target: Serine/threonine-protein kinase Nek11 (Homo sapiens) (UniProt Q8NG66); experiment: Binding affinity to wild-type human partial length NEK11 (M1 to E313 residues) expressed in mammalian expression system assessed as residual binding level at 1 uM by Kinomescan method relative to control
# [15] = biological target: Mitogen-activated protein kinase 12 (Homo sapiens) (UniProt P53778); experiment: Binding affinity to wild-type human full length p38-gamma (M1 to L367 residues) expressed in mammalian expression system assessed as residual binding level at 1 uM by Kinomescan method relative to control
# [16] = biological target: Serine/threonine-protein kinase PAK 2 (Homo sapiens) (UniProt Q13177); experiment: Binding affinity to wild-type human partial length PAK2 (P151 to R525 residues) expressed in bacterial expression system assessed as residual binding level at 1 uM by Kinomescan method relative to control
# [17] = biological target: Serine/threonine-protein kinase PAK 3 (Homo sapiens) (UniProt O75914); experiment: Binding affinity to wild-type human full length PAK3 (M1 to R544 residues) expressed in bacterial expression system assessed as residual binding level at 1 uM by Kinomescan method relative to control
# [18] = biological target: Cyclin-dependent kinase 16 (Homo sapiens) (UniProt Q00536); experiment: Binding affinity to wild-type human partial length PCTK1 (G160 to A474 residues) expressed in mammalian expression system assessed as residual binding level at 1 uM by Kinomescan method relative to control
# [19] = biological target: Protein kinase C eta type (Homo sapiens) (UniProt P24723); experiment: Binding affinity to wild-type human partial length PRKCH (S324 to P683 residues) expressed in bacterial expression system assessed as residual binding level at 1 uM by Kinomescan method relative to control
# [20] = biological target: RAF proto-oncogene serine/threonine-protein kinase (Homo sapiens) (UniProt P04049); experiment: Binding affinity to wild-type human partial length RAF1 (I330 to T640 residues) expressed in bacterial expression system assessed as residual binding level at 1 uM by Kinomescan method relative to control
# [21] = biological target: Dual serine/threonine and tyrosine protein kinase (Homo sapiens) (UniProt Q6XUX3); experiment: Binding affinity to wild-type human full length RIPK5 (M1 to T929 residues) expressed in mammalian expression system assessed as residual binding level at 1 uM by Kinomescan method relative to control
# [22] = biological target: Uncharacterized serine/threonine-protein kinase SBK3 (Homo sapiens) (UniProt P0C264); experiment: Binding affinity to wild-type human partial length SgK110 (L22 to R329 residues) expressed in bacterial expression system assessed as residual binding level at 1 uM by Kinomescan method relative to control
# [23] = biological target: TGF-beta receptor type-2 (Homo sapiens) (UniProt P37173); experiment: Binding affinity to wild-type human partial length TGFBR2 (I218 to K567 residues) expressed in bacterial expression system assessed as residual binding level at 1 uM by Kinomescan method relative to control
# [24] = biological target: Tyrosine-protein kinase receptor Tie-1 (Homo sapiens) (UniProt P35590); experiment: Binding affinity to wild-type human partial length TIE1 (T819 to A1138 residues) expressed in bacterial expression system assessed as residual binding level at 1 uM by Kinomescan method relative to control
# [25] = biological target: Serine/threonine-protein kinase TNNI3K (Homo sapiens) (UniProt Q59H18); experiment: Binding affinity to wild-type human full length TNNI3K (M1 to S835 residues) expressed in bacterial expression system assessed as residual binding level at 1 uM by Kinomescan method relative to control
# Chain of Tyrosine-protein kinase ABL1 (Homo sapiens), P00519 [F317I] (P00519 whole entry F317I, the tested form may be a part): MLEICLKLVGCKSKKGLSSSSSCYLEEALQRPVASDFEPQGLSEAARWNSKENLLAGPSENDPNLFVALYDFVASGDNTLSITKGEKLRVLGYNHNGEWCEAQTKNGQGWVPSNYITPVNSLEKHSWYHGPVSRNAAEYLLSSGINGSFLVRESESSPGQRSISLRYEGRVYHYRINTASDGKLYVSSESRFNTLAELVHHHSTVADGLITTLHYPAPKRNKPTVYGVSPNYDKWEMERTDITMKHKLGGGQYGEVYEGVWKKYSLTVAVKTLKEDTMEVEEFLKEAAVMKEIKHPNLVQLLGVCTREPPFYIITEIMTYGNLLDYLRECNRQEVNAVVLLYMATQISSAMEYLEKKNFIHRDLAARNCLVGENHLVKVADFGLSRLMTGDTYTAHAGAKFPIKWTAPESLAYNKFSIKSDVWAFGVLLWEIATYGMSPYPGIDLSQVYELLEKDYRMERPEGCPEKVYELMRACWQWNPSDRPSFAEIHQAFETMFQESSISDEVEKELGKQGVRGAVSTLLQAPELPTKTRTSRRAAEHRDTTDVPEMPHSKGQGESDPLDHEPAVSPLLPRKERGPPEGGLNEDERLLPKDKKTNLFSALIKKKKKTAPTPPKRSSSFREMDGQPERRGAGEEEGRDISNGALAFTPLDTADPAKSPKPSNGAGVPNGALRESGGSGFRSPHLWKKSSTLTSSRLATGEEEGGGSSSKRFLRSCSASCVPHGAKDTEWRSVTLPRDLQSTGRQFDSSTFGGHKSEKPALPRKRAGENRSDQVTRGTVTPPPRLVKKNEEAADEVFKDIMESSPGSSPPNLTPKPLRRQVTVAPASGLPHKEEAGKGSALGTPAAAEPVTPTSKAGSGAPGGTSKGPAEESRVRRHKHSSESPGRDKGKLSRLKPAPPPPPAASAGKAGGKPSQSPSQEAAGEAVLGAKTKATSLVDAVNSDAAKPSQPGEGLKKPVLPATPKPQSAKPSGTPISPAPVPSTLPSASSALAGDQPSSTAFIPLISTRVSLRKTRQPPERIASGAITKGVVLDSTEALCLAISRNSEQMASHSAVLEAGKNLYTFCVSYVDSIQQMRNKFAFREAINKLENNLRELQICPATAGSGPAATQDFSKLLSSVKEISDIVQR
# Chain of Cyclin-dependent kinase 11A (Homo sapiens) (Q9UQ88 whole entry, the tested form may be a part): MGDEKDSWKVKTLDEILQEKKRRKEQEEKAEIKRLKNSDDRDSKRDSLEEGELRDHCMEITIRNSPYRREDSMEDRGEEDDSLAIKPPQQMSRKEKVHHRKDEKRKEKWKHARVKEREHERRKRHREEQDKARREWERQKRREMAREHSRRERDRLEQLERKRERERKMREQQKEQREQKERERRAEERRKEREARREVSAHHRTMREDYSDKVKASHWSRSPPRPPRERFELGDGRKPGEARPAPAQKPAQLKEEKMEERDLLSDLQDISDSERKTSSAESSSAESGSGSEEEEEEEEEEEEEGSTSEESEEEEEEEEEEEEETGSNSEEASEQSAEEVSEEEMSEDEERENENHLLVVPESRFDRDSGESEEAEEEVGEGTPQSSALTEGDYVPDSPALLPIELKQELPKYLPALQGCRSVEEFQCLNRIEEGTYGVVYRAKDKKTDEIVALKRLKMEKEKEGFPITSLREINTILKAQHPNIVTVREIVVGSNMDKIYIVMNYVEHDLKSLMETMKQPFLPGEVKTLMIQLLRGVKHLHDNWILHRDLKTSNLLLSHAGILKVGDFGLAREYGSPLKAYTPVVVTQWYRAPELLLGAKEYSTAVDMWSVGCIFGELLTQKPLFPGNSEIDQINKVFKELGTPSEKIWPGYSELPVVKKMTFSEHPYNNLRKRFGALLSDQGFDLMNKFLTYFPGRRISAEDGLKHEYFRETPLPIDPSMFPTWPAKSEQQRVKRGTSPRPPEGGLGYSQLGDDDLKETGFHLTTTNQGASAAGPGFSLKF
# Chain of Epidermal growth factor receptor (Homo sapiens) (P00533 whole entry, the tested form may be a part): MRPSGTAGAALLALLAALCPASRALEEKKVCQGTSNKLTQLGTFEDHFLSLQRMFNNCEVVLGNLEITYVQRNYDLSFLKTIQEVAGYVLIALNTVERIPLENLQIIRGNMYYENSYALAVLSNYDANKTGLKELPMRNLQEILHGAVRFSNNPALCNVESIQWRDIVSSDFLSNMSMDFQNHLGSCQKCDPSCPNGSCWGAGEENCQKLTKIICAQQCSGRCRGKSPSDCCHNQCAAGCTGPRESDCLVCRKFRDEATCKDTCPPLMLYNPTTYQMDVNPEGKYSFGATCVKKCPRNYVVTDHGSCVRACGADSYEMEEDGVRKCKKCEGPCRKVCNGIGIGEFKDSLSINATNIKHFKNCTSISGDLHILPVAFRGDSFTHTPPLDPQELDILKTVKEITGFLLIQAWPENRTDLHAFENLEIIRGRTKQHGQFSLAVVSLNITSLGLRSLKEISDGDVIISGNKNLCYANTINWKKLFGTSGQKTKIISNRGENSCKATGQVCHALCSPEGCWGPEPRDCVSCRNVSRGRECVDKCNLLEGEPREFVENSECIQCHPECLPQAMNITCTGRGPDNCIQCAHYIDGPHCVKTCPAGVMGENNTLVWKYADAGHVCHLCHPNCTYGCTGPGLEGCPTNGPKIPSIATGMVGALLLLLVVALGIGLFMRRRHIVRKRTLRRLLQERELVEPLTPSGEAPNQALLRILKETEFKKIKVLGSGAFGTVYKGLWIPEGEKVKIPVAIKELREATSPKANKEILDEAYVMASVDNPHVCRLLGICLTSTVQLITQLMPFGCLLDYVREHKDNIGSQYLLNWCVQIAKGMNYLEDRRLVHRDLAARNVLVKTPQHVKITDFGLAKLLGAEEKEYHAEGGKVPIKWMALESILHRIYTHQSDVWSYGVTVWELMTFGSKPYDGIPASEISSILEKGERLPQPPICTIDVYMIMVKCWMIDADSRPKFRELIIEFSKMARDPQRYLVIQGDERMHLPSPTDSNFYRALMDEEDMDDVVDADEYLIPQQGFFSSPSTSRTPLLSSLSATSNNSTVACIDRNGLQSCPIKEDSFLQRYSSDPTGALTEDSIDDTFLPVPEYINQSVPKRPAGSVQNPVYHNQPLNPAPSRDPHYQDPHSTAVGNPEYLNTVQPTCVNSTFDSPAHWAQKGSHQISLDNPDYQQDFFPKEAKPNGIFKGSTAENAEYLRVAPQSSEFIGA
# Chain of Epidermal growth factor receptor (Homo sapiens), P00533 [UNDEFINED MUTATION] (P00533 whole entry, looked up, stated change not applied, the tested form may be a part): as the sequence (P00533 whole entry, the tested form may be a part) above
# Chain of Uncharacterized serine/threonine-protein kinase SBK3 (Homo sapiens) (P0C264 whole entry, the tested form may be a part): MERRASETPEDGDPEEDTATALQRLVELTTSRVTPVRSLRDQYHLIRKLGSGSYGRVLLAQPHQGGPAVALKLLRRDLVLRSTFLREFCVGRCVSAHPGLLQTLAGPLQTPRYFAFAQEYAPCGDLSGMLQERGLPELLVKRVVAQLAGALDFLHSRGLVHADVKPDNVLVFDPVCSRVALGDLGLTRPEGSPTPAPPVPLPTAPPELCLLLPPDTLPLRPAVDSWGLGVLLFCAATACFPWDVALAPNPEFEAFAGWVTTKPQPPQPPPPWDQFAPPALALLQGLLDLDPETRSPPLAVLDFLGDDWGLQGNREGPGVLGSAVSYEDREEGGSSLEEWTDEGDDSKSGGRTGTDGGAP
# Chain of Casein kinase II subunit alpha (Homo sapiens) (P68400 whole entry, looked up, the tested form may be a part): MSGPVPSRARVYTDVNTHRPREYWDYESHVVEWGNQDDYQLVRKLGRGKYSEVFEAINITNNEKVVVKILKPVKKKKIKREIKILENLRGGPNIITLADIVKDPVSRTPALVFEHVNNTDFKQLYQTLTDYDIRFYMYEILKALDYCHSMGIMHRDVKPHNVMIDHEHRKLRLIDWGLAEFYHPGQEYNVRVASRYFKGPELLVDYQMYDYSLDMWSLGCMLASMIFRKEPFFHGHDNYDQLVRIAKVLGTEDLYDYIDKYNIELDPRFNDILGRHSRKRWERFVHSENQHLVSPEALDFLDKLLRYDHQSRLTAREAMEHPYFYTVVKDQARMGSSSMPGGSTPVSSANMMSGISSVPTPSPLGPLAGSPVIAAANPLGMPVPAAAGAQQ
structure (smiles),measurement,setting,value
CC(C)Nc1sc(C(=O)c2ccc(Cl)s2)c(N)c1C#N,Activity,[1],100%
same,Activity,[2],100%
same,Activity,[3],100%
same,Activity,[4],88%
same,Activity,[5],77%
same,Activity,[6],100%
same,Activity,[7],100%
same,Activity,[8],64%
same,Activity,[9],89%
same,Activity,[10],82%
same,Activity,[11],96%
same,Activity,[12],100%
same,Activity,[13],98%
same,Activity,[14],97%
same,Activity,[15],100%
same,Activity,[16],75%
same,Activity,[17],95%
same,Activity,[18],100%
same,Activity,[19],84%
same,Activity,[20],71%
same,Activity,[21],85%
same,Activity,[22],100%
same,Activity,[23],100%
same,Activity,[24],69%
same,Activity,[25],75%
